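Interpolation was linear, between the two tested concentrations surrounding the appropriate level; five concentrations were tested over 48 hours in 96-well plates. Abbreviation: GI50, concentration required for 50% inhibition of growth. Definition used: TGI = concentration required for complete inhibition of growth.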
What was measured:
Experiment in all cases: NCI anticancer screen, dose series, 48 h
[1] = tested on: HCC-2998 colon
[2] = tested on: T-47D breast
[3] = tested on: OVCAR-8 ovarian
[4] = tested on: BT-549 breast
[5] = tested on: OVCAR-4 ovarian
[6] = tested on: HCT-15 colon
[7] = tested on: KM12 colon
[8] = tested on: HS 578T breast
[9] = tested on: UACC-257 melanoma
[10] = tested on: MOLT-4 leukemia
[11] = tested on: 786-0 renal
[12] = tested on: A549 NSCLC
[13] = tested on: UACC-62 melanoma
[14] = tested on: MALME-3M melanoma
[15] = tested on: CCRF-CEM leukemia
[16] = tested on: NCI-H23 lung
[17] = tested on: ACHN renal
[18] = tested on: SK-MEL-2 melanoma
[19] = tested on: NCI-H460 lung
[20] = tested on: SNB-75 CNS
[21] = tested on: HT29 colon
[22] = tested on: U251 CNS
[23] = tested on: CAKI-1 renal
[24] = tested on: SR leukemia
[25] = tested on: SK-MEL-28 melanoma
[26] = tested on: RPMI-8226 leukemia
[27] = tested on: A498 renal
[28] = tested on: UO-31 renal
[29] = tested on: SK-MEL-5 melanoma
[30] = tested on: HOP-62 NSCLC
[31] = tested on: HOP-92 NSCLC
[32] = tested on: SF-295 CNS
[33] = tested on: HL-60(TB) leukemia
[34] = tested on: OVCAR-5 ovarian
[35] = tested on: SK-OV-3 ovarian
[36] = tested on: MDA-MB-231 breast
[37] = tested on: NCI-H522 lung
[38] = tested on: SNB-19 CNS
[39] = tested on: IGROV1 ovarian
[40] = tested on: DU-145 prostate
[41] = tested on: EKVX NSCLC
[42] = tested on: MCF7 breast
[43] = tested on: SN12C renal
[44] = tested on: LOX IMVI melanoma
[45] = tested on: K-562 leukemia
[46] = tested on: NCI-H226 lung
[47] = tested on: M14 melanoma
[48] = tested on: SF-268 CNS
[49] = tested on: HCT-116 colon
[50] = tested on: PC-3 prostate
[51] = tested on: SF-539 CNS
[52] = tested on: NCI/ADR-RES ovarian
[53] = tested on: OVCAR-3 ovarian
[54] = tested on: RXF 393 renal
[55] = tested on: COLO 205 colon
[56] = tested on: MDA-MB-435
[57] = tested on: TK-10 renal

Which results are given for `Cc1ccc2c(C)c3c(ccc4ccccc43)c[n+]2c1`?
GI50 [1]: 8.06 µM; TGI [1]: 25.5 µM; GI50 [2]: 1730 nM; TGI [2]: 7.18 µM; GI50 [3]: 6.35 µM; TGI [3]: 25.4 µM; GI50 [4]: 3.57 µM; TGI [4]: 16.6 µM; GI50 [5]: 5.21 µM; TGI [5]: 41.7 µM; GI50 [6]: 77.7 µM; TGI [6]: > 100 µM; GI50 [7]: 1560 nM; TGI [7]: 14.8 µM; GI50 [8]: 4.37 µM; TGI [8]: 22.3 µM; GI50 [9]: 10.4 µM; TGI [9]: 77.1 µM; GI50 [10]: 5.54 µM; TGI [10]: 28.4 µM; GI50 [11]: 20.1 µM; TGI [11]: > 100 µM; GI50 [12]: 3.85 µM; TGI [12]: > 100 µM; GI50 [13]: 8.88 µM; TGI [13]: 22 µM; GI50 [14]: 1960 nM; TGI [14]: 5.69 µM; GI50 [15]: 8.89 µM; TGI [15]: 38.9 µM; GI50 [16]: 3.96 µM; TGI [16]: 38.6 µM; GI50 [17]: 29.6 µM; TGI [17]: > 100 µM; GI50 [18]: 15.4 µM; TGI [18]: 33.6 µM; GI50 [19]: 5.1 µM; TGI [19]: 25.1 µM; GI50 [20]: 11.9 µM; TGI [20]: 40.3 µM; GI50 [21]: 33.5 µM; TGI [21]: > 100 µM; GI50 [22]: 2800 nM; TGI [22]: 18.6 µM; GI50 [23]: 40.5 µM; TGI [23]: > 100 µM; GI50 [24]: 3.75 µM; TGI [24]: 22.9 µM; GI50 [25]: 4.68 µM; TGI [25]: 18.4 µM; GI50 [26]: 4.92 µM; TGI [26]: 41.2 µM; GI50 [27]: 5.85 µM; TGI [27]: > 100 µM; GI50 [28]: 27.8 µM; TGI [28]: > 100 µM; GI50 [29]: 2250 nM; TGI [29]: 10.4 µM; GI50 [30]: 5.93 µM; TGI [30]: 24.7 µM; GI50 [31]: 6.28 µM; TGI [31]: 35.2 µM; GI50 [32]: 3.04 µM; TGI [32]: 31.7 µM; GI50 [33]: 21.5 µM; TGI [33]: 55.8 µM; GI50 [34]: 39.5 µM; TGI [34]: > 100 µM; GI50 [35]: 18.6 µM; TGI [35]: 57.2 µM; GI50 [36]: 13.5 µM; TGI [36]: 46.2 µM; GI50 [37]: 15.5 µM; TGI [37]: 38.8 µM; GI50 [38]: 2840 nM; TGI [38]: 24.7 µM; GI50 [39]: 9.28 µM; TGI [39]: 80.1 µM; GI50 [40]: 14.7 µM; TGI [40]: 40.6 µM; GI50 [41]: 775 nM; TGI [41]: > 100 µM; GI50 [42]: 629 nM; TGI [42]: 25.9 µM; GI50 [43]: 2180 nM; TGI [43]: 18.2 µM; GI50 [44]: 17.3 µM; TGI [44]: 53.6 µM; GI50 [45]: 9.3 µM; TGI [45]: 47.3 µM; GI50 [46]: 21.1 µM; TGI [46]: > 100 µM; GI50 [47]: 14.1 µM; TGI [47]: 31.7 µM; GI50 [48]: 2870 nM; TGI [48]: 15.9 µM; GI50 [49]: 17.3 µM; TGI [49]: 78.7 µM; GI50 [50]: 7.15 µM; TGI [50]: 41 µM; GI50 [51]: 13.8 µM; TGI [51]: 28.2 µM; GI50 [52]: > 100 µM; TGI [52]: > 100 µM; GI50 [53]: 2640 nM; TGI [53]: 16.8 µM; GI50 [54]: 41.5 µM; TGI [54]: > 100 µM; GI50 [55]: 11 µM; TGI [55]: 24.7 µM; GI50 [56]: 9.55 µM; TGI [56]: 24.4 µM; GI50 [57]: 68.3 µM; TGI [57]: > 100 µM

Source: PubChem BioAssay (NCI)
